# Experimental data from ChEMBL document CHEMBL3991601, “The target landscape of clinical kinase drugs” (Science, 2017).
# Active and inactive are the calls of the source.
# Target: T1, Ephrin type-B receptor 2 (Homo sapiens, UniProt P29323)
# T1 sequence (P29323 whole entry): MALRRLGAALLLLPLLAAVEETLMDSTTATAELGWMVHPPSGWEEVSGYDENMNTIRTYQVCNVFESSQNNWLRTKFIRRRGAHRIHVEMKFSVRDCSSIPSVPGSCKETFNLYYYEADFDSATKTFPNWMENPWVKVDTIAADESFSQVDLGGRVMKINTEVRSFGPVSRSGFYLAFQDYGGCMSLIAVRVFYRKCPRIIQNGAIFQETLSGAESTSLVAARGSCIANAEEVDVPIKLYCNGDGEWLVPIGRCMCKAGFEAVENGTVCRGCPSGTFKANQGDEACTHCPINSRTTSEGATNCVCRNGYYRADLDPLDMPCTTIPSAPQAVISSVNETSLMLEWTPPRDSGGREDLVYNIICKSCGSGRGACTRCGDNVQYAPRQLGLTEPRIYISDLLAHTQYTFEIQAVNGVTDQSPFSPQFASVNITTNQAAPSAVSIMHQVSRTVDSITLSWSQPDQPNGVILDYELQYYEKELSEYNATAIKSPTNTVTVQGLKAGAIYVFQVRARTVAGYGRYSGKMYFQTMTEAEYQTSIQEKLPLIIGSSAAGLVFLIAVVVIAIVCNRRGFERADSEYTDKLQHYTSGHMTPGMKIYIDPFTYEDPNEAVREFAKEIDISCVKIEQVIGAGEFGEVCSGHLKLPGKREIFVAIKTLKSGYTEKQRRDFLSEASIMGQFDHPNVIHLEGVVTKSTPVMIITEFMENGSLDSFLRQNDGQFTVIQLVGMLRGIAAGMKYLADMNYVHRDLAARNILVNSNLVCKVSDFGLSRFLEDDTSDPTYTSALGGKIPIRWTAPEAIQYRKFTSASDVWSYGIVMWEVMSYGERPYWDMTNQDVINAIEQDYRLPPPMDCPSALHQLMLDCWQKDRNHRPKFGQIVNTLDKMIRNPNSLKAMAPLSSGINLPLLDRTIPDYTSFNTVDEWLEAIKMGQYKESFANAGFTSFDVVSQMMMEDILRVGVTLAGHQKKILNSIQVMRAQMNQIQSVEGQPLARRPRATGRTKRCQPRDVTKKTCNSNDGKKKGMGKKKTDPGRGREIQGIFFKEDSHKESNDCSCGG
# Also: in the data inactive means no Kd found up to 30 µM.
row,Compound,Kd
1,CCS(=O)(=O)N1CC(CC#N)(n2cc(-c3ncnc4[nH]ccc34)cn2)C1 [BARICITINIB],> 30 µM (inactive)
2,Cc1cc2c(F)c(Oc3ncnn4cc(OC[C@@H](C)OC(=O)[C@H](C)N)c(C)c34)ccc2[nH]1 [BRIVANIB ALANINATE],> 30 µM (inactive)
3,CNC(=O)c1ccc(-c2cnc3ncc(Cc4ccc5ncccc5c4)n3n2)cc1F [CAPMATINIB],> 30 µM (inactive)
4,CCc1cnn2c(NCc3ccc[n+]([O-])c3)cc(N3CCCC[C@H]3CCO)nc12 [DINACICLIB],> 30 µM (inactive)
5,COc1cc2nccc(Oc3ccc(NC(=O)NC4CC4)c(Cl)c3)c2cc1C(N)=O [LENVATINIB],> 30 µM (inactive)
6,Cc1c(F)cc(C(=O)NC2CC2)cc1-c1ccc(C(=O)NCC(C)(C)C)cn1 [LOSMAPIMOD],> 30 µM (inactive)
7,Cn1cc(-c2ccc(F)c(C(F)(F)F)c2)nc1C1CCN(c2ncnc3[nH]ncc23)CC1 [LY-2584702],> 30 µM (inactive)
8,C1=C/COCc2cc(ccc2OCCN2CCCC2)Nc2nccc(n2)-c2cccc(c2)COC/1 [PACRITINIB],> 30 µM (inactive)
9,OCCn1cc(-c2cnc3nnn(Cc4ccc5ncccc5c4)c3n2)cn1 [PF-04217903],> 30 µM (inactive)
10,CNC(=O)c1ccc(C)c(-n2c(C)cc(OCc3ccc(F)cc3F)c(Br)c2=O)c1 [PH-797804],> 30 µM (inactive)
11,O=C(Nc1cccc(Cl)c1)Nc1ncc(CCNc2ncnc3ccsc23)s1 [SNS-314],> 30 µM (inactive)
12,C[C@@H]1CN(Cc2ccc(F)cc2)[C@@H](C)CN1C(=O)c1cc2c(C(=O)C(=O)N(C)C)cn(C)c2cc1Cl [TALMAPIMOD],> 30 µM (inactive)
13,COc1cc2nccc(Oc3ccc(NC(=O)Nc4cc(C)on4)c(Cl)c3)c2cc1OC [TIVOZANIB],0.448 µM (active)

# Target: T2, Mitogen-activated protein kinase kinase kinase 5 (Homo sapiens, UniProt Q99683)
# T2 sequence (Q99683 whole entry): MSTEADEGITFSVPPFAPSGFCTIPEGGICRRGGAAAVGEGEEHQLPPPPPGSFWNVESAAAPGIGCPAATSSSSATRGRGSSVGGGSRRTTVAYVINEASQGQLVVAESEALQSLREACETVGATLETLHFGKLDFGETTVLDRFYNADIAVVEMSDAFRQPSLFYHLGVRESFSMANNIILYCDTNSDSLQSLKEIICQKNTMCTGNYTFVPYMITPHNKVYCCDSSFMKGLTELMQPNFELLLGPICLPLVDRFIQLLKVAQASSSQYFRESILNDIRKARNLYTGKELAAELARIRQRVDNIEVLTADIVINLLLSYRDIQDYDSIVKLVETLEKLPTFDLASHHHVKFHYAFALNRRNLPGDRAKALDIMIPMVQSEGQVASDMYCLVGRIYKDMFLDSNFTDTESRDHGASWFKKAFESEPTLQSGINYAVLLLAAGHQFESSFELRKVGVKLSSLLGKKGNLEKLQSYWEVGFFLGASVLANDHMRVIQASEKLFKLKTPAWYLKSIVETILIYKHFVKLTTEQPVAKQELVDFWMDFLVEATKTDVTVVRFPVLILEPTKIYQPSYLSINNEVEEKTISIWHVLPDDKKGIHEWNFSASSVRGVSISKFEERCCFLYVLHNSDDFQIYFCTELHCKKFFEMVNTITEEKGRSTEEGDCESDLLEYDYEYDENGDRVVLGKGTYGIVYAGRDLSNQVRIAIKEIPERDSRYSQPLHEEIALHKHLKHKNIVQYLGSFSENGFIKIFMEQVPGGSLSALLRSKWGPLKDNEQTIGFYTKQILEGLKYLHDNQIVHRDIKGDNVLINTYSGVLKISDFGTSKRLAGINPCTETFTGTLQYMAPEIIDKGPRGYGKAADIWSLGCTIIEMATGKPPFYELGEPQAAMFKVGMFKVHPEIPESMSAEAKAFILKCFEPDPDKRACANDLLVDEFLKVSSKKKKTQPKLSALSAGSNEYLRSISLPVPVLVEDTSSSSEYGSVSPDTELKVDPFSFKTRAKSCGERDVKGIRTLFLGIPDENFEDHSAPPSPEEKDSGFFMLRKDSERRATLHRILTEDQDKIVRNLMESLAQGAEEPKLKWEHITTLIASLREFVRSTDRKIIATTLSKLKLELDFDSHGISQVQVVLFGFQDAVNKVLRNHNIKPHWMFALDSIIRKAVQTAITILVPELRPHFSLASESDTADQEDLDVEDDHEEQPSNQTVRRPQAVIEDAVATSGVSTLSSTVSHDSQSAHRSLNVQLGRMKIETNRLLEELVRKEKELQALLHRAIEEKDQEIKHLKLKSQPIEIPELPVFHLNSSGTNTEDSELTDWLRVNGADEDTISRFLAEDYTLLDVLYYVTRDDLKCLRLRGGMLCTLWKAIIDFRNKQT
row,Compound,Kd
1,CCS(=O)(=O)N1CC(CC#N)(n2cc(-c3ncnc4[nH]ccc34)cn2)C1 [BARICITINIB],> 30 µM (inactive)
2,Cc1cc2c(F)c(Oc3ncnn4cc(OC[C@@H](C)OC(=O)[C@H](C)N)c(C)c34)ccc2[nH]1 [BRIVANIB ALANINATE],> 30 µM (inactive)
3,CNC(=O)c1ccc(-c2cnc3ncc(Cc4ccc5ncccc5c4)n3n2)cc1F [CAPMATINIB],> 30 µM (inactive)
4,CCc1cnn2c(NCc3ccc[n+]([O-])c3)cc(N3CCCC[C@H]3CCO)nc12 [DINACICLIB],> 30 µM (inactive)
5,COc1cc2nccc(Oc3ccc(NC(=O)NC4CC4)c(Cl)c3)c2cc1C(N)=O [LENVATINIB],> 30 µM (inactive)
6,Cc1c(F)cc(C(=O)NC2CC2)cc1-c1ccc(C(=O)NCC(C)(C)C)cn1 [LOSMAPIMOD],> 30 µM (inactive)
7,Cn1cc(-c2ccc(F)c(C(F)(F)F)c2)nc1C1CCN(c2ncnc3[nH]ncc23)CC1 [LY-2584702],> 30 µM (inactive)
8,C1=C/COCc2cc(ccc2OCCN2CCCC2)Nc2nccc(n2)-c2cccc(c2)COC/1 [PACRITINIB],> 30 µM (inactive)
9,OCCn1cc(-c2cnc3nnn(Cc4ccc5ncccc5c4)c3n2)cn1 [PF-04217903],> 30 µM (inactive)
10,CNC(=O)c1ccc(C)c(-n2c(C)cc(OCc3ccc(F)cc3F)c(Br)c2=O)c1 [PH-797804],> 30 µM (inactive)
11,O=C(Nc1cccc(Cl)c1)Nc1ncc(CCNc2ncnc3ccsc23)s1 [SNS-314],> 30 µM (inactive)
12,C[C@@H]1CN(Cc2ccc(F)cc2)[C@@H](C)CN1C(=O)c1cc2c(C(=O)C(=O)N(C)C)cn(C)c2cc1Cl [TALMAPIMOD],> 30 µM (inactive)
13,COc1cc2nccc(Oc3ccc(NC(=O)Nc4cc(C)on4)c(Cl)c3)c2cc1OC [TIVOZANIB],> 30 µM (inactive)

# Target: Tyrosine-protein kinase BTK (Homo sapiens, UniProt Q06187)
# Sequence (Q06187 whole entry): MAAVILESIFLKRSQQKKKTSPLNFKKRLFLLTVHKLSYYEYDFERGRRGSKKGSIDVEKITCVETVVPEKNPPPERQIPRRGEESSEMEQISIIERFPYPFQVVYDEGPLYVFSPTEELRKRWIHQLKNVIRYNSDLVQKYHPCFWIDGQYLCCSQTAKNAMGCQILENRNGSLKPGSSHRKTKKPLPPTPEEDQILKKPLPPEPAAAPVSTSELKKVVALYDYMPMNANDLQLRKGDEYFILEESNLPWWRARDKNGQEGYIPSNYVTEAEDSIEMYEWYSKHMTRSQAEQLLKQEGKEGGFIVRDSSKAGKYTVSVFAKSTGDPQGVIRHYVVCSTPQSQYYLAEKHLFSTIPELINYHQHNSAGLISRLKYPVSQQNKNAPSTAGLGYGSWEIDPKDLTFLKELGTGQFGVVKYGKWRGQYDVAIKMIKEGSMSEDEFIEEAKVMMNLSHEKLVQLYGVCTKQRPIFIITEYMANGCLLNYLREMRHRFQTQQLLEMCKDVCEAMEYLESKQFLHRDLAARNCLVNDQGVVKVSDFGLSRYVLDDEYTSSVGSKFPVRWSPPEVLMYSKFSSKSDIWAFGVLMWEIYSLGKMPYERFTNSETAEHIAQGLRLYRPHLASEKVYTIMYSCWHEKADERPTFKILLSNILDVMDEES
row,Compound,Kd
1,CCS(=O)(=O)N1CC(CC#N)(n2cc(-c3ncnc4[nH]ccc34)cn2)C1 [BARICITINIB],> 30 µM (inactive)
2,Cc1cc2c(F)c(Oc3ncnn4cc(OC[C@@H](C)OC(=O)[C@H](C)N)c(C)c34)ccc2[nH]1 [BRIVANIB ALANINATE],> 30 µM (inactive)
3,CNC(=O)c1ccc(-c2cnc3ncc(Cc4ccc5ncccc5c4)n3n2)cc1F [CAPMATINIB],> 30 µM (inactive)
4,Cc1c(F)cc(C(=O)NC2CC2)cc1-c1ccc(C(=O)NCC(C)(C)C)cn1 [LOSMAPIMOD],> 30 µM (inactive)
5,Cn1cc(-c2ccc(F)c(C(F)(F)F)c2)nc1C1CCN(c2ncnc3[nH]ncc23)CC1 [LY-2584702],> 30 µM (inactive)
6,C1=C/COCc2cc(ccc2OCCN2CCCC2)Nc2nccc(n2)-c2cccc(c2)COC/1 [PACRITINIB],> 30 µM (inactive)
7,CNC(=O)c1ccc(C)c(-n2c(C)cc(OCc3ccc(F)cc3F)c(Br)c2=O)c1 [PH-797804],> 30 µM (inactive)
8,C[C@@H]1CN(Cc2ccc(F)cc2)[C@@H](C)CN1C(=O)c1cc2c(C(=O)C(=O)N(C)C)cn(C)c2cc1Cl [TALMAPIMOD],> 30 µM (inactive)
9,COc1cc2nccc(Oc3ccc(NC(=O)Nc4cc(C)on4)c(Cl)c3)c2cc1OC [TIVOZANIB],> 30 µM (inactive)

# Target: Mitogen-activated protein kinase 11 (Homo sapiens, UniProt Q15759)
# Sequence (Q15759 whole entry): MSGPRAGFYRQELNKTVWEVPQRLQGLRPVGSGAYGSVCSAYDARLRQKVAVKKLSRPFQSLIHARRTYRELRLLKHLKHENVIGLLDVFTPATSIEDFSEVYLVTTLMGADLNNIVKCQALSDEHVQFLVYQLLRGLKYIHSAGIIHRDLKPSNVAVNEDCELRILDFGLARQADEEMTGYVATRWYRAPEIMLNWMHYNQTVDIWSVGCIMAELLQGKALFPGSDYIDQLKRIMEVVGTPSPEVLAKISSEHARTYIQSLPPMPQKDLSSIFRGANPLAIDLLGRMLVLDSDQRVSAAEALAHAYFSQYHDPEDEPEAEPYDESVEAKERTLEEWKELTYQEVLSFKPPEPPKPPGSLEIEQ
row,Compound,Kd
1,CCS(=O)(=O)N1CC(CC#N)(n2cc(-c3ncnc4[nH]ccc34)cn2)C1 [BARICITINIB],> 30 µM (inactive)
2,Cc1cc2c(F)c(Oc3ncnn4cc(OC[C@@H](C)OC(=O)[C@H](C)N)c(C)c34)ccc2[nH]1 [BRIVANIB ALANINATE],> 30 µM (inactive)
3,CNC(=O)c1ccc(-c2cnc3ncc(Cc4ccc5ncccc5c4)n3n2)cc1F [CAPMATINIB],> 30 µM (inactive)
4,Cc1nc(N)sc1-c1ccnc(Nc2ccc(N3CCOCC3)cc2)n1 [CYC-116],> 30 µM (inactive)
5,CCc1cnn2c(NCc3ccc[n+]([O-])c3)cc(N3CCCC[C@H]3CCO)nc12 [DINACICLIB],> 30 µM (inactive)
6,COc1cc2nccc(Oc3ccc(NC(=O)NC4CC4)c(Cl)c3)c2cc1C(N)=O [LENVATINIB],> 30 µM (inactive)
7,Cn1cc(-c2ccc(F)c(C(F)(F)F)c2)nc1C1CCN(c2ncnc3[nH]ncc23)CC1 [LY-2584702],> 30 µM (inactive)
8,C1=C/COCc2cc(ccc2OCCN2CCCC2)Nc2nccc(n2)-c2cccc(c2)COC/1 [PACRITINIB],> 30 µM (inactive)
9,OCCn1cc(-c2cnc3nnn(Cc4ccc5ncccc5c4)c3n2)cn1 [PF-04217903],> 30 µM (inactive)
10,O=C(Nc1cccc(Cl)c1)Nc1ncc(CCNc2ncnc3ccsc23)s1 [SNS-314],> 30 µM (inactive)

# Target: Serine/threonine-protein kinase PAK 2 (Homo sapiens, UniProt Q13177)
# Sequence (Q13177 whole entry): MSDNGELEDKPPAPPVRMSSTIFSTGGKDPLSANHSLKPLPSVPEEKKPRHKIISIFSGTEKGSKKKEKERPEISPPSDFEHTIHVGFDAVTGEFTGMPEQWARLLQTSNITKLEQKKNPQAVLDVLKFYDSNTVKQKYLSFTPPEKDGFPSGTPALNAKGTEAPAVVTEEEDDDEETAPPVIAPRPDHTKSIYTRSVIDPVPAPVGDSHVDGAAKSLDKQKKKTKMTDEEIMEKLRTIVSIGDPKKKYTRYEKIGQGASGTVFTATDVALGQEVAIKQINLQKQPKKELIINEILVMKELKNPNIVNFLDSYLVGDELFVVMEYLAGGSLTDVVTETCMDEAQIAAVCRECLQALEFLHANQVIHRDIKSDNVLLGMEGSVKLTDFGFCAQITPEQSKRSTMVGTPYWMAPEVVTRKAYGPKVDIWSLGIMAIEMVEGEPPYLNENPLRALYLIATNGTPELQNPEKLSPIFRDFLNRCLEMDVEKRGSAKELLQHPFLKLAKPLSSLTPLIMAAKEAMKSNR
row,Compound,Kd
1,CCS(=O)(=O)N1CC(CC#N)(n2cc(-c3ncnc4[nH]ccc34)cn2)C1 [BARICITINIB],> 30 µM (inactive)
2,Cc1cc2c(F)c(Oc3ncnn4cc(OC[C@@H](C)OC(=O)[C@H](C)N)c(C)c34)ccc2[nH]1 [BRIVANIB ALANINATE],> 30 µM (inactive)
3,CNC(=O)c1ccc(-c2cnc3ncc(Cc4ccc5ncccc5c4)n3n2)cc1F [CAPMATINIB],> 30 µM (inactive)
4,Cc1nc(N)sc1-c1ccnc(Nc2ccc(N3CCOCC3)cc2)n1 [CYC-116],> 30 µM (inactive)
5,CCc1cnn2c(NCc3ccc[n+]([O-])c3)cc(N3CCCC[C@H]3CCO)nc12 [DINACICLIB],> 30 µM (inactive)
6,COc1cc2nccc(Oc3ccc(NC(=O)NC4CC4)c(Cl)c3)c2cc1C(N)=O [LENVATINIB],> 30 µM (inactive)
7,OCCn1cc(-c2cnc3nnn(Cc4ccc5ncccc5c4)c3n2)cn1 [PF-04217903],> 30 µM (inactive)
8,CNC(=O)c1ccc(C)c(-n2c(C)cc(OCc3ccc(F)cc3F)c(Br)c2=O)c1 [PH-797804],> 30 µM (inactive)
9,O=C(Nc1cccc(Cl)c1)Nc1ncc(CCNc2ncnc3ccsc23)s1 [SNS-314],> 30 µM (inactive)
10,C[C@@H]1CN(Cc2ccc(F)cc2)[C@@H](C)CN1C(=O)c1cc2c(C(=O)C(=O)N(C)C)cn(C)c2cc1Cl [TALMAPIMOD],> 30 µM (inactive)
11,COc1cc2nccc(Oc3ccc(NC(=O)Nc4cc(C)on4)c(Cl)c3)c2cc1OC [TIVOZANIB],> 30 µM (inactive)
